Values after ≈ are worked out from the molar mass of the structure shown. Read-outs that look alike come from different tables or passages of the source.
How the values were obtained:
[1] = test system: TCF4; experiment: Effects of compounds on TCF4 expression (Table 9); assay type: cell-based
Description: (§1) The effects of various compounds having general formula (I) on surviving and TCF4 expression were characterized.

[2] = test system: survivin; experiment: Effects of compounds on survivin expression (Table 9); assay type: cell-based; settings: for inhibition at 25 µM: Table 9, 25 uM; for inhibition at 5 µM: read-out: Survivin % inhibition 5 uM, Table 9, 5 uM
Description: A plasmid containing luciferase under the control of surviving promoter was constructed and transfected into wild type, CBP+/−, or p300+/−3T3 cells.
as §1

[3] = test system: SW480 cells; experiment: Growth inhibition assay (MTS or sulforhodamine B), SW480; assay type: cell-based; settings: Homo sapiens
[4] = test system: HCT116 cells; experiment: Growth inhibition assay (MTS or sulforhodamine B), HCT116; assay type: cell-based; settings: Homo sapiens, HCT-116, 48 h, Table 5, MTS or sulforhodamine B assay, HCT116, 48 hours
[5] = test system: TCF4/β-catenin transcriptional pathway; experiment: Reporter gene assay (TOPFlash luciferase) in SW480 cells; assay type: cell-based; settings: Homo sapiens
Experimental: SW480 cells were transfected with the usage of Superfect™ transfect reagent (Qiagen, 301307). Cells were trypsinized briefly 1 day before transfection and plated on 6 well plate (5×10^5 cells/well) so that they were 50-80% confluent on the day of transfection.
Four microgram (TOPFlash) and one microgram (pRL-null) of DNAs were diluted in 150 μl of serum-free medium, and 30 μl of Superfect™ transfect reagent was added. The DNA-Superfect mixture was incubated at room temperature for 15 min, and then, 1 ml of 10% FBS DMEM was added to this complex for an additional 3 hours of incubation. While complexes were forming, cells were washed with PBS twice without antibiotics.
The DNA-Superfect™ transfect reagent complexes were applied to the cells before incubating at 37° C. at 5% CO2 for 3 hours. After incubation, recovery medium with 10% FBS was added to bring the final volume to 1.18 ml. After 3 hours incubation, the cells were harvested and reseeded to 96 well plate (3×10^4 cells/well). After overnight incubation at 37° C. at 5% CO2, the cells were treated with Compound A for 24 hours. Finally, the activity was checked by means of luciferase assay (Promega, E1960).

[6] = physchem; settings: 37 °C, thermodynamic from solid
[7] = test system: survivin promoter; experiment: Survivin luciferase reporter in SW480 cells; assay type: cell-based; settings: Homo sapiens, SW480, read-out: RGA, Survivin IC50, uM, Table 10, prodrug compounds, reporter gene assay survivin
[8] = test system: 293; experiment: Sulforhodamine B (SRB) assay, 293; assay type: cell-based; settings: Homo sapiens, HEK293; Renal, 293, 48 hours
Experimental: Growth inhibitory effect of Compound A on the cells listed below was measured by the sulforhodamine B assay. SW480 cells in 100 μl media were plated in each well of 96-well plate and allowed to attach for 24 hours. Compound A was added to the wells to produce the desired final concentrations, and the plates were incubated at 37° C. for 48 hours. The cells were then fixed by gentle addition of 100 μl of cold (4° C.) 10% trichloroacetic acid to each well, followed by incubation at 4° C. for 1 hour. Plates were washed with deionized water five times and allowed to air dry. The cells were then stained by addition of 100 μl SRB solution (0.4% SRB(w/v) in 1% acetic acid (v/v)) to wells for 15 min. After staining, the plates were quickly washed five times with 1% acetic acid to remove any unbound dye, and allowed to air dry. Bound dye was solubilized with 10 mmol/L Tris base (pH 10.5) prior to reading the plates. The optical density (OD) was read on a plate reader at a wavelength of 515 nm with Molecular Device. Inhibition of growth was expressed as relative viability (% of control) and GI50 was calculated from concentration-response curves after log/probit transformation.
The values in Table 6 are in μg/ml.

[9] = test system: surviving protein; experiment: Western blot analysis of survivin protein; assay type: cell-based; settings: 5 μM
[10] = test system: min mouse; experiment: Min mouse model (polyp number); assay type: in vivo; settings: for % Inhibition vs. VH: total polyp number
Experimental: Selected compounds of the present invention (Compound B and Compound C) were evaluated in the min mouse model to evaluate their efficacy as anti-cancer agents.
The min mouse model is a widely used model to test for this type of efficacy. The numbers of polyp formed in small intestine and colon of these mice after various treatments were measured (Table 7).

[11] = SW480, 48 h, Table 5, MTS or sulforhodamine B assay, SW480, 48 hours, read-out: Growth Inhibition (GI50, uM) SW480
[12] = SW480, Table 4, selected library compounds, Reporter gene assay as described in Example 6, read-out: IC50
[13] = pH 1.2, simulated gastric fluid, Solubility JP1 (pH 1.2), 0 hr
[14] = pH 1.2, simulated gastric fluid, Solubility JP1 (pH 1.2), 2 hr
[15] = pH 1.2, simulated gastric fluid, Solubility JP1 (pH 1.2), 20 hr
[16] = pH 6.8, fassgf or other biorelevant, Solubility JP2 (pH 6.8), 0 hr
[17] = pH 6.8, fassgf or other biorelevant, Solubility JP2 (pH 6.8), 2 hr
[18] = pH 6.8, fassgf or other biorelevant, Solubility JP2 (pH 6.8), 20 hr

| Structure (SMILES) | solubility [6, 13] [µg/mL] | solubility [6, 14] [µg/mL] | solubility [6, 15] [µg/mL] | solubility [6, 16] [µg/mL] | solubility [6, 17] [µg/mL] | solubility [6, 18] [µg/mL] | other results |
| --- | --- | --- | --- | --- | --- | --- | --- |
| CN1CC(=O)N2[C@@H](CN(Cc3cccc4ccccc34)C(=O)[C@@H]2Cc2ccc(O)cc2)N1C(=O)NCc1ccccc1 |  |  |  |  |  |  | IC50 [1]: ~2 µM; inhibition at 25 µM [2]: 99%; inhibition at 5 µM [2]: 100% |
| CN1CC(=O)N2[C@@H](CN(Cc3c(Cl)cc(Cl)c4cccnc34)C(=O)[C@@H]2Cc2ccc(O)cc2)N1C(=O)NCc1ccccc1 |  |  |  |  |  |  | IC50 [1]: 11.2 ± 1.5 µM; inhibition at 25 µM [2]: 58%; inhibition at 5 µM [2]: 6% |
| CN1CC(=O)N2[C@@H](Cc3ccc(O)cc3)C(=O)N(Cc3cccc4ccccc34)C[C@@H]2N1C(=O)NCc1ccccc1 [Compound 1] |  |  |  |  |  |  | GI50 [3, 11]: 2.28 µM; GI50 [4]: 1.78 µM |
| CN1CC(=O)N2[C@@H](Cc3ccc(OP(=O)(O)O)cc3)C(=O)N(Cc3cccc4ccccc34)C[C@@H]2N1C(=O)NCc1ccccc1 [Compound 1] |  |  |  |  |  |  | IC50 ([5]; SW480, Table 10, prodrug compounds, reporter gene assay TopFlash, read-out: RGA, TopF IC50): 4.2 µM; solubility ([6]; pH 1.2, simulated gastric fluid, Solubility JP1 (pH 1.2)): 60.1 µg/mL (≈ 93.4 µM); solubility ([6]; pH 6.8, fassgf or other biorelevant, Solubility JP2 (pH 6.8)): 1800 µg/mL (≈ 2790 µM); IC50 [7]: 6.4 µM; GI50 ([3]; SW480, Table 10, prodrug compounds, SW480, read-out: MTS, SW480 (uM) GI50): 2 µM |
| COC(=O)N1C2CN(CCc3ccc(F)cc3)C(=O)C(Cc3cccc4ccccc34)N2C(=O)CN1Cc1ccccc1 (stereo not drawn) [Compound 1] |  |  |  |  |  |  | IC50 [5, 12]: 12.8 µM |
| CN(C)c1cc(F)ccc1CN1C[C@H]2N(C(=O)CN(C)N2C(=O)NCc2ccccc2)[C@@H](Cc2ccc(OP(=O)(O)O)cc2)C1=O [Compound 3] | 1880 (≈ 2870 µM) | 1970 (≈ 3010 µM) | 2040 (≈ 3110 µM) | 1320 (≈ 2020 µM) | 1900 (≈ 2910 µM) | 2000 (≈ 3060 µM) |  |
| CN1CC(=O)N2[C@@H](Cc3ccc(OP(=O)([O-])[O-])cc3)C(=O)N(Cc3ccc(F)cc3F)C[C@@H]2N1C(=O)NCc1ccccc1.[Na+].[Na+] [Compound 4] | 554 | 646 | 756 | 1980 | 2010 | 2030 |  |
| O=c1[nH]cc(F)c(=O)[nH]1 [Compound 5-FU, 5-fluorouracil, reference compound] |  |  |  |  |  |  | GI50 [8]: 2.02 µg/mL (≈ 15.5 µM); amount of survivin protein (Western blot) [9]: reduced the amount of the surviving protein |
| CN1CC(=O)N2[C@@H](Cc3ccc(OP(=O)(O)O)cc3)C(=O)N(Cc3cccc4cnn(C)c34)C[C@@H]2N1C(=O)NCc1ccccc1 [Compound 5] | 406 (≈ 627 µM) | 532 (≈ 821 µM) | 684 (≈ 1060 µM) | 1760 (≈ 2720 µM) | 1780 (≈ 2750 µM) | 1760 (≈ 2710 µM) |  |
| C=CCN1CC(=O)N2[C@@H](Cc3ccc(OP(=O)([O-])[O-])cc3)C(=O)N(Cc3cccc4cccnc34)C[C@@H]2N1C(=O)NCc1ccccc1.[Na+].[Na+] [Compound 6] | 1450 | 1720 | 1790 | 1830 | 1860 | 1870 |  |
| C=CCN1CC(=O)N2[C@@H](Cc3ccc(OP(=O)([O-])[O-])cc3)C(=O)N(Cc3ccc(Cl)c4cccnc34)C[C@@H]2N1C(=O)NCc1ccccc1.[Na+].[Na+] [Compound 7] | 309 | 446 | 521 | 2140 | 2220 | 2240 |  |
| C=CCN1CC(=O)N2[C@@H](Cc3ccc(OP(=O)([O-])[O-])cc3)C(=O)N(Cc3ccc(F)cc3F)C[C@@H]2N1C(=O)NCc1ccccc1.[Na+].[Na+] [Compound 8] | 671 | 775 | 921 | 2300 | 2320 | 2270 |  |
| CN1CC(=O)N2[C@@H](Cc3ccc(OP(=O)([O-])[O-])cc3)C(=O)N(Cc3cccc4cccnc34)C[C@@H]2N1C(=O)NCc1ccccc1.[Na+].[Na+] [Compound 9] | 2250 | 2280 | 2400 | 2320 | 2350 | 2420 |  |
| CN(C)c1cc(F)c(F)cc1CN1C[C@H]2N(C(=O)CN(C)N2C(=O)NCc2ccccc2)[C@@H](Cc2ccc(OP(=O)([O-])[O-])cc2)C1=O.[Na+].[Na+] [Compound 10] | 2290 | 2270 | 2330 | 2030 | 2060 | 2030 |  |
| CN(C)c1cc(CN2C[C@H]3N(C(=O)CN(C)N3C(=O)NCc3ccccc3)[C@@H](Cc3ccc(OP(=O)([O-])[O-])cc3)C2=O)ccc1Cl.[Na+].[Na+] [Compound 11] | 2010 | 2000 | 2000 | 1640 | 1650 | 1650 |  |
| CN1CC(=O)N2[C@@H](Cc3ccc(O)cc3)C(=O)N(Cc3ccc(F)cc3F)C[C@@H]2N1C(=O)NCc1ccccc1 [Compound 13] |  |  |  |  |  |  | GI50 [3, 11]: 1.65 µM; GI50 [4]: 1.59 µM |
| CCOP(=O)(CC(=O)Nc1ccc(C[C@H]2C(=O)N(Cc3cccc4ccccc34)C[C@H]3N2C(=O)CN(C)N3C(=O)NCc2ccccc2)cc1)OCC [Compound 59] |  |  |  |  |  |  | GI50 [3, 11]: > 50 µM |
| CN1CC(=O)N2[C@@H](Cc3ccc(O)cc3)C(=O)N(Cc3cccc4c3cnn4CCN3CCOCC3)C[C@@H]2N1C(=O)NCc1ccccc1 [Compound 73] |  |  |  |  |  |  | GI50 [3, 11]: 9.2 ± 0.8 µM; GI50 [4]: 15.8 ± 2.6 µM |
| CN1CC(=O)N2[C@@H](Cc3ccc(O)cc3)CN(Cc3ccc(F)cc3F)C[C@@H]2N1C(=O)NCc1ccccc1 [Compound 77] |  |  |  |  |  |  | GI50 [3, 11]: 26.5 ± 6.5 µM; GI50 [4]: 10.7 ± 0.8 µM |
| C=CCN1CC(=O)N2[C@@H](Cc3ccc(O)cc3)C(=O)N(Cc3ccc(F)cc3F)C[C@@H]2N1C(=O)NCc1ccccc1 [Compound 115] |  |  |  |  |  |  | GI50 [3, 11]: 2 ± 0.7 µM; GI50 [4]: 1.1 ± 0.04 µM |
| C=CCN1CC(=O)N2[C@@H](Cc3ccc(O)cc3)C(=O)N(Cc3ccc(F)cc3F)[C@@H](C)[C@@H]2N1C(=O)NCc1ccccc1 [Compound 147] |  |  |  |  |  |  | GI50 [3, 11]: 6.1 ± 0.4 µM; GI50 [4]: 5.5 ± 0.4 µM |
| C=CCN1CC(=O)N2[C@@H](Cc3ccc(OP(=O)(O)O)cc3)C(=O)N(Cc3cccc4c3OCCN4C)C[C@@H]2N1C(=O)NCc1ccccc1 [Compound 169] |  |  |  |  |  |  | IC50 [5, 12]: 1 ± 0.1 µM |
| CN1CC(=O)N2[C@@H](Cc3ccc(O)cc3)C(=O)N(Cc3cccc4cccnc34)C[C@@H]2N1C(=O)NCc1ccccc1 [Compound B] |  |  |  |  |  |  | Polyp Number (Mean ± S.D.) Colon ([10]; 300 mpk): 1.4 ± 0.9; Polyp Number (Mean ± S.D.) Small Intestine ([10]; 300 mpk): 45.2 ± 22.1; Polyp Number (Mean ± S.D.) Total ([10]; 300 mpk): 46.8 ± 17.0; % Inhibition vs. VH ([10]; 300 mpk): 31% |
| CC1=C(CC(=O)O)c2cc(F)ccc2/C1=C\c1ccc([S+](C)[O-])cc1 (stereo not drawn) [Sulindac] |  |  |  |  |  |  | Polyp Number (Mean ± S.D.) Colon ([10]; 160 ppm): 0.5 ± 0.5; Polyp Number (Mean ± S.D.) Small Intestine ([10]; 160 ppm): 48.0 ± 20.7; Polyp Number (Mean ± S.D.) Total ([10]; 160 ppm): 48.5 ± 20.9; % Inhibition vs. VH ([10]; 160 ppm): 28% |

Source: patent US7932384B2, “Reverse-turn mimetics and method relating thereto” (Choongwae Pharma Corporation, priority 2001, dated 2011)
